ChEMBL document CHEMBL1201862, “PubChem BioAssay data set” (2004)
Values joined by “and” are separate entries in the source; they are usually repeats but may differ in a detail not shown here. Equal entries are not always repeated. Active and inactive are the calls of the source.

How the values were obtained:
[1] = biological target: Induced myeloid leukemia cell differentiation protein Mcl-1 (Homo sapiens, UniProt Q07820); type: functional
[2] = biological target: T1, Tyrosine-protein phosphatase non-receptor type 22 (Homo sapiens, UniProt Q9Y2R2); experiment: SAR LYP1 Fluorescent Assay using OMFP substrate for In Vitro dose response studies - Set 3. [Related pubchem assays (depositor defined):AID1779, AID1784, AID2140, AID2686]; type: functional
T1 sequence (Q9Y2R2 whole entry): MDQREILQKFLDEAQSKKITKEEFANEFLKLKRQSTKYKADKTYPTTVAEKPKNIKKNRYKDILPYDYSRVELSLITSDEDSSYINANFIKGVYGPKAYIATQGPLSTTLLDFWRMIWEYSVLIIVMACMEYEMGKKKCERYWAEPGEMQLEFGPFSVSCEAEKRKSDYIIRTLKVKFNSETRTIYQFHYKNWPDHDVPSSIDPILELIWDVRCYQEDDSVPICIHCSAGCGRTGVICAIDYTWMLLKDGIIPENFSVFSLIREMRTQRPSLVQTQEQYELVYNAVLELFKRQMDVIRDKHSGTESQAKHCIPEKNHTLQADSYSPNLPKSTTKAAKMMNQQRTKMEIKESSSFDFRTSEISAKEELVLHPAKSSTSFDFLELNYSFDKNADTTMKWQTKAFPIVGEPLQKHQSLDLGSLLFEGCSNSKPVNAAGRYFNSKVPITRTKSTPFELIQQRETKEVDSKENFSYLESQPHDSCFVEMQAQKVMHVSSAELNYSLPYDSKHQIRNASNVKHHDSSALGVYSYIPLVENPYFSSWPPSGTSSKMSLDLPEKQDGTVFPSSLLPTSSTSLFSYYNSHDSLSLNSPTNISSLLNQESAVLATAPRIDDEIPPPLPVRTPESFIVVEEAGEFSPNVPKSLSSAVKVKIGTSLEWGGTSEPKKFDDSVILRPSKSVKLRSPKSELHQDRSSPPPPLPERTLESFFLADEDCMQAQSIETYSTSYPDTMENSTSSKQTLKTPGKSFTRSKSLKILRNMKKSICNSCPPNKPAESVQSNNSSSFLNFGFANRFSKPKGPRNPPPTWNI

[3] = biological target: T2, Tyrosine-protein phosphatase non-receptor type 7 (Homo sapiens, UniProt P35236); experiment: HePTP (PTPN7) phosphatase inhibitor potency, SAR follow-up, biochemical, set 2 (AID 449736); type: functional
T2 sequence (P35236 whole entry): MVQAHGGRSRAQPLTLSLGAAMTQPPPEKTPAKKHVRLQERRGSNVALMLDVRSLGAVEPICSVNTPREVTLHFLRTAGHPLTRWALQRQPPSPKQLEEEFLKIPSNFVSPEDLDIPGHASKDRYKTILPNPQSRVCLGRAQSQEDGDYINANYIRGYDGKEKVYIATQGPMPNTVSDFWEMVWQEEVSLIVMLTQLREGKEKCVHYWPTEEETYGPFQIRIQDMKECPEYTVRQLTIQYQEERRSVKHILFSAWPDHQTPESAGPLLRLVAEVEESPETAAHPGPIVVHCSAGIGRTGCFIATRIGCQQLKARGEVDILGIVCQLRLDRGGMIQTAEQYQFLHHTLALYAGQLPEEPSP

[4] = biological target: T1, Tyrosine-protein phosphatase non-receptor type 22; experiment: LYP (PTPN22) phosphatase inhibitor potency, SAR follow-up, biochemical, pCAP fluorogenic substrate, fluorescence, set 3 (AID 449727); type: functional
Large T antigen = Large T antigen (Simian virus 40, UniProt P03070); type: functional, Betapolyomavirus macacae;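 further: Confirmatory-stage PubChem screen for compounds that inhibit SV40 T antigen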
Large T antigen, sequence (P03070 whole entry): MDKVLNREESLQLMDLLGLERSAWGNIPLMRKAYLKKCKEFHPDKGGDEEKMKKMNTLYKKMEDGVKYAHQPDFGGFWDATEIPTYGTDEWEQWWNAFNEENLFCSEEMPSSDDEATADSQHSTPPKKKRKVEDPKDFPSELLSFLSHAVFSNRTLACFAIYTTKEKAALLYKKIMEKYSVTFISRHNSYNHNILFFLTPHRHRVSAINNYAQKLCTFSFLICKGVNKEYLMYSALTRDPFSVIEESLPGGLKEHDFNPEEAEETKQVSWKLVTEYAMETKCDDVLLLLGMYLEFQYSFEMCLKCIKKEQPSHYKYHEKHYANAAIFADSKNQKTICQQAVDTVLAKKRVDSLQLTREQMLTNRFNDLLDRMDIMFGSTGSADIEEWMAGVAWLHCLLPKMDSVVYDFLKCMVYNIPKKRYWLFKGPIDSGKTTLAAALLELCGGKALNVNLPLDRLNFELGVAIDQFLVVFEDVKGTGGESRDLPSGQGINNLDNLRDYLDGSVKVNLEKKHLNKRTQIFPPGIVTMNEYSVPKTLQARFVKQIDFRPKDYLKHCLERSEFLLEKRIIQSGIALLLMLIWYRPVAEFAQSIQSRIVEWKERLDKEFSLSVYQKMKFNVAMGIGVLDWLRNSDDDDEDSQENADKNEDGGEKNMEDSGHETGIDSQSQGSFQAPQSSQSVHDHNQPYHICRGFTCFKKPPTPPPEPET

[5] = biological target: Tyrosine-protein phosphatase non-receptor type 12 (Homo sapiens, UniProt Q05209); experiment: SAR Selectivity Analysis of small molecule inhibitors of PEST using pCAP in a fluorescence assay. [Related pubchem assays (depositor defined):AID1779, AID1784, AID2135]; type: functional
Tyrosine-protein phosphatase non-receptor type 12, sequence (Q05209 whole entry): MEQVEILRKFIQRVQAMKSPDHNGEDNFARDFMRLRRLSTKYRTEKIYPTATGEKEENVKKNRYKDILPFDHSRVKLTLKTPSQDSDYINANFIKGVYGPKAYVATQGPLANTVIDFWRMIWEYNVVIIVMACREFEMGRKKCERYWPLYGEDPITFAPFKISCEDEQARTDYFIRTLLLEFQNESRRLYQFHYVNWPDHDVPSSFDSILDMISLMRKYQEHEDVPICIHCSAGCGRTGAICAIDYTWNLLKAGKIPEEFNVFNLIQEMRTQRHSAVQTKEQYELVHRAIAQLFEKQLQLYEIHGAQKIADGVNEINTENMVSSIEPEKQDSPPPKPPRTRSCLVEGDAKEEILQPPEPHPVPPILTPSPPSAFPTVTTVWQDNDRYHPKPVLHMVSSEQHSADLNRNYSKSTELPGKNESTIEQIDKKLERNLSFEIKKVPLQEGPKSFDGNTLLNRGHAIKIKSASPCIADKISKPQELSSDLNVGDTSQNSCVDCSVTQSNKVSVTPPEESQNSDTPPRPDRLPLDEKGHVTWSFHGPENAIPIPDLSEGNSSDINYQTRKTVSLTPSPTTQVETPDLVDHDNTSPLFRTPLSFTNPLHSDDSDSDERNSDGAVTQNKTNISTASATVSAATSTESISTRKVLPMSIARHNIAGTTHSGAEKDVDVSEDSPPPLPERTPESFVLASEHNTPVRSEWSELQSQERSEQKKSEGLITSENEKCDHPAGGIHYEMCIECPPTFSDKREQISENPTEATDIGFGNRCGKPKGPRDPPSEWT

[6] = fluorescence interference artefacts, compound only, dose response, artefact control for cardiac thin filament activator project, biochemical, no RTF in test wells (AID 504697)
Troponin, cardiac muscle = Troponin, cardiac muscle (Homo sapiens, UniProt P19429+P45379+P63316); experiment: Fluorescence-based biochemical high throughput dose response assay for activators of the calcium sensitivity of cardiac Regulated Thin Filaments (RTF). [Related pubchem assays (depositor defined):AID493008, AID493018, AID504382, AID504383]; type: protein-complex assay
[7] = biological target: Heat shock protein HSP 90-alpha (Homo sapiens, UniProt P07900); type: functional, organism-based
[8] = biological target: T3, Intestinal-type alkaline phosphatase (Homo sapiens, UniProt P09923); experiment: human IAP activators, dose response, biochemical, luminescent, uHTS hits, set 2 (AID 488817); type: functional;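 further: potency of activators that raise enzyme activity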
T3 sequence (P09923 whole entry): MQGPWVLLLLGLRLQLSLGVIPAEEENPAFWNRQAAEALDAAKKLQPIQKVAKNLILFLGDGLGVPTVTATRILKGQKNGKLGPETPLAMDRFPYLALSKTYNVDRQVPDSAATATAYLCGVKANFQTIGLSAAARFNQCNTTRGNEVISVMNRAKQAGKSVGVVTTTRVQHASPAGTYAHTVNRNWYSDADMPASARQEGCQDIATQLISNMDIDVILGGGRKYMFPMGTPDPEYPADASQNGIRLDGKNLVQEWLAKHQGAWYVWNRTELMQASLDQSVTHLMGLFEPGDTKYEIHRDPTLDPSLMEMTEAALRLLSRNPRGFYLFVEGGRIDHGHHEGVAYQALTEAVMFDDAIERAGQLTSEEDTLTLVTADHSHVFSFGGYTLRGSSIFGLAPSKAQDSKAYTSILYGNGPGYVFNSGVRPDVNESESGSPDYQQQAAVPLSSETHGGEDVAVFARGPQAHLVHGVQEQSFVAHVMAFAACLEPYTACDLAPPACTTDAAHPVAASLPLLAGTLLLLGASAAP

[9] = biological target: T3, Intestinal-type alkaline phosphatase; experiment: human intestinal alkaline phosphatase activators, dose response, biochemical, luminescence, uHTS hits (AID 463120); type: functional
Exodeoxyribonuclease V = biological target: T4, Exodeoxyribonuclease V (Escherichia coli (strain K12), UniProt P04993+P07648+P08394); experiment: E. coli RecBCD inhibitors, dose response, counter-screen for AddAB inhibitor project, absorbance, V66 E. coli, mutant T4 phage (AID 492957); type: functional, cell-based, Escherichia coli str. K-12 substr. MG1655
T4 sequence (P04993 whole entry): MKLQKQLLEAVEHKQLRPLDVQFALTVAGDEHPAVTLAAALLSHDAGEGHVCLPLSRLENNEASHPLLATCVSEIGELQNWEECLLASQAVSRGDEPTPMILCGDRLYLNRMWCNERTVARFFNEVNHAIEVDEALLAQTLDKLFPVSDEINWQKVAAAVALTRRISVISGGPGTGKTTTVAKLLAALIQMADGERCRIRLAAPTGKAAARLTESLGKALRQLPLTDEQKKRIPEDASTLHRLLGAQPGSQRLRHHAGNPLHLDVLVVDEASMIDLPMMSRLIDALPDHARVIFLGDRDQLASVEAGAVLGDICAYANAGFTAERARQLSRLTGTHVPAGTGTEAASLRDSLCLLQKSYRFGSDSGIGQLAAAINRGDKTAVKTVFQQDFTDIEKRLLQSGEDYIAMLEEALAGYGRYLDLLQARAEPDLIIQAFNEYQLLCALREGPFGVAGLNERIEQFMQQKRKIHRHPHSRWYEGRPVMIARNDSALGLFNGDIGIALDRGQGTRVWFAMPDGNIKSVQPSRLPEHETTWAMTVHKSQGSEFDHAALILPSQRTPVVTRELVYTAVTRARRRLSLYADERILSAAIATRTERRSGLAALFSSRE
T4 sequence (P07648 whole entry): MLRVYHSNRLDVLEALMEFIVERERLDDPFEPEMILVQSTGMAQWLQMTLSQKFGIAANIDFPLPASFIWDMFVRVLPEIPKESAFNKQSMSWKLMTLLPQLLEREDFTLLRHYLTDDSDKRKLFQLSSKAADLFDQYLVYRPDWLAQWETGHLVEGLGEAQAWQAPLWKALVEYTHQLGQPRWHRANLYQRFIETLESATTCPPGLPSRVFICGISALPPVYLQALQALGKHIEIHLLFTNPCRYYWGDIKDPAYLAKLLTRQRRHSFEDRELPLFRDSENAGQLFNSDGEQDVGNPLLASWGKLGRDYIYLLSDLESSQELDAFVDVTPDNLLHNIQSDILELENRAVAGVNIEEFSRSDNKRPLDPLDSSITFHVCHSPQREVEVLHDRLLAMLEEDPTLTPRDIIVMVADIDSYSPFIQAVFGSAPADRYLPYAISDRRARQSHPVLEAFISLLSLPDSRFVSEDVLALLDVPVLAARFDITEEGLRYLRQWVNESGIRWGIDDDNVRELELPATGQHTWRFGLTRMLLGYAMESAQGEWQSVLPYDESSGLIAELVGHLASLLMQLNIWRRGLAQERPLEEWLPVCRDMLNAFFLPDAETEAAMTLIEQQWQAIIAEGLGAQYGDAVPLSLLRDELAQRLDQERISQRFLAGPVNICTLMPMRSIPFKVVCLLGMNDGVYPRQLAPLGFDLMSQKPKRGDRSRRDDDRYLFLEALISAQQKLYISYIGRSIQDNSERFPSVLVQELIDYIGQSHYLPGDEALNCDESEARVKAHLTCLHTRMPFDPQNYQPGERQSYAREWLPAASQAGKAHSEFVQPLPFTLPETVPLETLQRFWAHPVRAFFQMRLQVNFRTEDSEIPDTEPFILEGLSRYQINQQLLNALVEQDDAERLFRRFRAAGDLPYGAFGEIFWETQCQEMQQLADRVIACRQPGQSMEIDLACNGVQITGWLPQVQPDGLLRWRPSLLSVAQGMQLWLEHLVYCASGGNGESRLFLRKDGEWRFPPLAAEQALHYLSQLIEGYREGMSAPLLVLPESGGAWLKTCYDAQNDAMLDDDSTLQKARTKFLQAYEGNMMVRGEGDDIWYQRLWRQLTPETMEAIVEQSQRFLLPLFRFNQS
T4 sequence (P08394 whole entry): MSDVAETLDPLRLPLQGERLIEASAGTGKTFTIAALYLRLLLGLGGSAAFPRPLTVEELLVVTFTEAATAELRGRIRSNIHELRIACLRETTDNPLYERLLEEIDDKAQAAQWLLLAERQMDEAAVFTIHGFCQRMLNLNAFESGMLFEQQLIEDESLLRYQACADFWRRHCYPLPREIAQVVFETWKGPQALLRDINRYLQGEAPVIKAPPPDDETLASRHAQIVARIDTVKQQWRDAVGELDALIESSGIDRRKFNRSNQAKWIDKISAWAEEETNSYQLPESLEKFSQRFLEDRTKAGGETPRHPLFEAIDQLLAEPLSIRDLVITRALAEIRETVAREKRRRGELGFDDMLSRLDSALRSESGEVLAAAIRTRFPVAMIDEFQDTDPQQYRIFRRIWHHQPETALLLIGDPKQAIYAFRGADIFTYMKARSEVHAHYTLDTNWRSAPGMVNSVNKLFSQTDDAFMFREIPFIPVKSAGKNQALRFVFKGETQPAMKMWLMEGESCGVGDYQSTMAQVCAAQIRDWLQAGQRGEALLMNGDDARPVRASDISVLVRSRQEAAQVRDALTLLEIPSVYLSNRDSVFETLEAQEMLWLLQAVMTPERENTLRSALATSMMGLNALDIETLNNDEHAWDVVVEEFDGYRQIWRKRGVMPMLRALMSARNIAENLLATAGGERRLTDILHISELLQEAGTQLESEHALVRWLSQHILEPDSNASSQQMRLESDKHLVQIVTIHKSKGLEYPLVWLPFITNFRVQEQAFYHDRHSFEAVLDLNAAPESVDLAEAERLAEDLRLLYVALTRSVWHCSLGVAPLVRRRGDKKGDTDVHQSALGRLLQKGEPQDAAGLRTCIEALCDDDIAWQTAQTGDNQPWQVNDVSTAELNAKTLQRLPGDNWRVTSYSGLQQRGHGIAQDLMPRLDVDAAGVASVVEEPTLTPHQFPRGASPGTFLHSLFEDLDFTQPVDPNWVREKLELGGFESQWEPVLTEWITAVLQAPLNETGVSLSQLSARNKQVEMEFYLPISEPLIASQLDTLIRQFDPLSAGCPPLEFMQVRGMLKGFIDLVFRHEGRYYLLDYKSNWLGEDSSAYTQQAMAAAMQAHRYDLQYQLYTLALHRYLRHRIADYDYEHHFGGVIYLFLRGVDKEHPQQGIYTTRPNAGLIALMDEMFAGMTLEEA

[10] = biological target: T5, Endoribonuclease toxin MazF (Escherichia coli K-12, UniProt P0AE70); experiment: MazF toxin RNase activators, dose response, biochemical, fluorescence, single-stranded RNA substrate, uHTS hits (AID 588481); type: functional
T5 sequence (P0AE70 whole entry): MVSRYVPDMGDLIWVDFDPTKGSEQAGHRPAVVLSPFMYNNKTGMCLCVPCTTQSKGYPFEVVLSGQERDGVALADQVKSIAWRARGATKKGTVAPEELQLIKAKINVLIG

[11] = Counterscreen for AddAB inhibitors: absorbance-based bacterial cell-based high throughput dose response assay for inhibitors of bacterial viability. [Related pubchem assays (depositor defined):AID435030, AID449728, AID449731, AID488942, AID488955, AID488956]; type: functional
[12] = microbe, parasite or virus in culture; type: functional; settings: Mycobacterium tuberculosis
[13] = biological target: Intestinal-type alkaline phosphatase (Mus musculus, UniProt P24822); experiment: PubChem AID 488874; type: functional
Intestinal-type alkaline phosphatase (Mus musculus, UniProt P24822), sequence (P24822 whole entry): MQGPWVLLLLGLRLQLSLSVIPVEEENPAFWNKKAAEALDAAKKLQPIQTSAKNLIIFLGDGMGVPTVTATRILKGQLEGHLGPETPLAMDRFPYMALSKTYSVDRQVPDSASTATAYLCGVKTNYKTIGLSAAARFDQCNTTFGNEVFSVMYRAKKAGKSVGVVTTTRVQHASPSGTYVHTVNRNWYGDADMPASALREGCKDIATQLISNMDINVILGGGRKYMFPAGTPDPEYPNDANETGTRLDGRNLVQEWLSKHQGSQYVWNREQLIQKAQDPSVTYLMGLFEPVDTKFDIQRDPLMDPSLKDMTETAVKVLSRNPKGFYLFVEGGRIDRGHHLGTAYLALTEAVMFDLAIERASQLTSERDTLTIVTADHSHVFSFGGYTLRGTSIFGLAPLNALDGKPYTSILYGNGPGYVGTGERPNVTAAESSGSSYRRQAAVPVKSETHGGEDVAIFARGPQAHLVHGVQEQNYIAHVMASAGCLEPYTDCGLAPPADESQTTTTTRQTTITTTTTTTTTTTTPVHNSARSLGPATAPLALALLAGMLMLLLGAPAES

[14] = biological target: T5, Endoribonuclease toxin MazF; experiment: fluorescent RNA oligo signal without MazF, dose response, counter-screen for MazEF activator project, biochemical, fluorescence, single-stranded RNase substrate (AID 588502); type: functional

Induced myeloid leukemia cell differentiation protein Mcl-1, sequence (Q07820 whole entry): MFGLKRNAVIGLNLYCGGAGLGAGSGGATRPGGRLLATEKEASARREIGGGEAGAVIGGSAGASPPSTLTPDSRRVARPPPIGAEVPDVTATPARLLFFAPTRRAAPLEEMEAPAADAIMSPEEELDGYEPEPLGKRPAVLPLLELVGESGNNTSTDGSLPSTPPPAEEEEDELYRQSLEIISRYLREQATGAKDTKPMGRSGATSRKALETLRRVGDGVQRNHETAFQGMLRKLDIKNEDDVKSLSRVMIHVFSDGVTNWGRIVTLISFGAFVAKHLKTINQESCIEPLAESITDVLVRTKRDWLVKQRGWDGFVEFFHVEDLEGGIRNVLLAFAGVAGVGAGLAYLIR

Q: For `CC(/C=C1\SC(=S)N(CCCC(=O)Nc2ccc(C(=O)O)c(O)c2)C1=O)=C\c1ccccc1`, which IC50 [1] is on record?
A: The IC50 was 1.56 µM (active).

Q: What about the IC50 [2] of the same compound?
A: The IC50 was 49.1 µM (active) and 44.9 µM (active).

Q: What about the IC50 [3] of the same compound?
A: Its IC50 is 739 nM (active) and 703 nM (active).

Q: What about the IC50 [4] of the same compound?
A: Its IC50 is 37.9 µM (active) and 40.9 µM (active).

Q: And the IC50 (Large T antigen)?
A: Its IC50 is > 100 µM (active).

Q: What about the IC50 [5] of the same compound?
A: Its IC50 is 14 µM (active) and 9.91 µM (active).

Q: With `N#C/C(=C/c1ccc(-c2ccccc2)o1)c1nc(-c2cccs2)cs1` as the compound, how does the EC50 [6] read?
A: Its EC50 is > 7.94 µM (active).

Q: And the EC50 (Troponin, cardiac muscle)?
A: The EC50 was 0.615 µM (active).

Q: Which AC50 [7] does the source give for `C=CCN1C(=O)/C(=N/Nc2ccccc2O)c2ccccc21` here?
A: Its AC50 is 10.9 µM (active).

Q: And the EC50 [8]?
A: Its EC50 is 0.378 µM (active).

Q: And the EC50 [9]?
A: Its EC50 is 8.62 µM (active).

Q: And the IC50 (Exodeoxyribonuclease V)?
A: Its IC50 is > 118 µM (inactive).

Q: And the EC50 [10]?
A: The EC50 was > 99 µM (inactive).

Q: And the IC50 [11]?
A: Its IC50 is 42.8 µM (inactive).

Q: What about the CC50 [12] of the same compound?
A: Its CC50 is 38.1 µM (active).

Q: What about the IC50 [13] of the same compound?
A: The IC50 was 9.81 µM (active).

Q: What about the EC50 [14] of the same compound?
A: Its EC50 is 46.3 µM (inactive).
